According to patent US20180353505A1, “COMPATIBLE SOLUTE OR SOLUTE MIXTURE FOR USE IN THE PREVENTION OR TREATMENT OF DISEASES HAVING BARRIER DEFECTS IN EPITHELIAL TISSUES” (bitop AG, priority 2015, published 2018):
“And” between values parts separate entries of the source, which are not always exact repeats. Identical values can stand only once.

Legend:
[1] = test system: epithelial cells of oral mucosa (TR146); assay: TEER of TR146 monolayer after 12 h incubation, no stress (FIG. 2); type: cell-based, human
Experimental: (§1) A defined strength (U) of a direct current (DC) is applied between two electrodes E1 and E2 for determination of TEER, wherein the single-layered cell layer (monolayer) is arranged between the two electrodes (FIG. 1), such that the applied direct current (DC) flows through the cells. The measurement of TEER is made by an epithelial voltmeter (EVOM2). The resulting current I is measured according to the ohmic resistance R, wherein R=U/I (Benson K, Cramer S, Galla H J (2013) Impedance-based cell monitoring: Barrier properties and beyond. FluidsBarriers, 10:5.).
For this purpose, in in vitro experiments, epithelial tissues were sown on special cell culture carrier having a membrane (ThinCerts, pore size 0.4 μm) and cultured to a closed, single-layered cell layer (synonymously epithelial monolayer) on the membrane (FIG. 1).
(§2) The intact epithelial monolayer was respectively controlled by a TEER measurement. If no increase were measured in the TEER over two days, the epithelial cells have formed an intact epithelial monolayer having intact epithelial barrier (selective permeability barrier).
In order to measure effects of ectoine on barrier function, in particular membrane integrity, TR146 cells of an intact epithelial monolayer were incubated in cell culture medium with PBS (control), with 50 mM ectoine and with 0.1% lecithin (positive control) for 12 hours (h).

[2] = test system: epithelial cells of the oral mucosa (TR146); assay: TEER of TR146 monolayer after overnight incubation and 0.005% SDS stress (FIG. 3); type: cell-based, human; conditions: then 0.005% SDS
Experimental: as §1, with “10:5.). […]” for “10:5.).”
as §2
In order to subsequently measure the effect of ectoine on membrane stability under the influence of chemicals, an intact epithelial monolayer of epithelial cells of the oral mucosa (TR146) were incubated in cell culture medium with PBS (control), with 50 mM ectoine and with 0.1% lecithin (positive control) over night. Subsequently, stress treatment was made with 0.005% SDS and change of the transepithelial electric resistance [Ohm] was monitored hourly (FIG. 3).

[3] = test system: porcine renal epithelial cells (LLC-PK1); assay: TEER of LLC-PK1 monolayer after overnight incubation and BAK stress (FIG. 4); type: cell-based; conditions: LLC-PK1, 50 mM ectoine over night, then BAK stress
Experimental: as §1, with “10:5.). […]” for “10:5.).”
as §2
Additionally, an intact epithelial monolayer of porcine renal epithelial cells (LLC-PK1) was also incubated in cell culture medium with PBS (control), with 50 mM ectoine and with 0.1% lecithin (positive control) over night. Subsequently, stress treatment was made with 0.001% BAK and change of the transepithelial electric resistance [Ohm] was monitored hourly (FIG. 4).

HaCaT (drying stress) = assay: Allergy prevention assay (APA) with drying stress, HaCaT monolayer; type: cell-based, human
Excerpt: (§3) The cell culture vessel (6) comprises an inner (7) and an outer (5) reservoir, wherein the two compartment are partitioned by a transparent ThinCerts membrane (5) having a pore size of 0.4 μm. This pore size allows for cytokine and protein movement between the outer and inner reservoir (FIG. 6.) Eukaryotic cells may not pass through this membrane thus forming a single-layered closed cell layer which covers the whole membrane. In doing so, an arrangement is achieved by the experimental setup which reflects the apical side (outer reservoir) and basolateral side (inner reservoir within the inset) of epithelial cells. However, allergens, such as e.g. ovalbumin (OVA), may pass the membrane without problems due to their low molecule size.
(§4) If a closed epithelial cell layer is present, OVA may only pass this membrane barrier through “gaps”, tight junction or transcytosis from the apical to the basolateral side. […]
The cells of the respective cell line (see Table 3) were cultivated on a membrane (3) (FIG. 6) until formation of a closed single-layered cell layer (2) (synonymously epithelial monolayer). […] Subsequently, the OVA content was measured in the inner and outer reservoir by means of OVA-specific ELISA and the relative penetration of the epithelial monolayer with OVA in pretreated and non-treated cells was determined. […]

[4] = test system: rabbit corneal epithelial cells (SIRC); assay: Allergy prevention assay (APA), OVA penetration, SIRC monolayer; type: cell-based
Excerpt: as §3
If a closed epithelial cell layer is present, OVA may only pass this membrane barrier through “gaps”, tight junction or transcytosis from the apical to the basolateral side. (Ding L, Zhang Y, Jiang Y, Wang L, Liu B, Liu J (2014) Transport of egg white ACE-Inhibitory peptide, Gln-Ile-Gly-Leu-Phe, in human intestinal Caco-2 cell monolayers with cytoprotective effect. J Agric Food Chem (Epub ahead of print)).
The cells of the respective cell line (see Table 3) were cultivated on a membrane (3) (FIG. 6) until formation of a closed single-layered cell layer (2) (synonymously epithelial monolayer). Subsequently, the epithelial monolayer was pretreated with ectoine (10, 50, 100 mM) in cell culture medium for 6 hours. After pretreatment with ectoine, the epithelia monolayer was incubated with 250 μg/ml of the allergen OVA (FIG. 6) over night. Subsequently, the OVA content was measured in the inner and outer reservoir by means of OVA-specific ELISA and the relative penetration of the epithelial monolayer with OVA in pretreated and non-treated cells was determined.

[5] = test system: epithelial cells of the oral mucosa (TR146); assay: Allergy prevention assay (APA), OVA penetration, TR146 monolayer; type: cell-based, human; conditions: TR146, OVA + 100 mM ectoine
Excerpt: as §3, §4
(§5) The cells of the respective cell line (see Table 3) were cultivated on a membrane (3) (FIG. 6) until formation of a closed single-layered cell layer (2) (synonymously epithelial monolayer). […] Subsequently, the OVA content was measured in the inner and outer reservoir by means of OVA-specific ELISA and the relative penetration of the epithelial monolayer with OVA in pretreated and non-treated cells was determined.

[6] = test system: human keratinocytes (HaCaT); assay: Allergy prevention assay (APA), OVA penetration, HaCaT monolayer; type: cell-based; conditions: OVA + 10 mM ectoine
Excerpt: as §3, §4, §5

[7] = test system: rat bronchial epithelial cells (RLE); assay: Allergy prevention assay (APA), OVA penetration, RLE monolayer; type: cell-based
Excerpt: as §3, §4, §5

Claudin-1 = Claudin-1 expression in HaCaT monolayer after heat stress (ELISA); type: cell-based, human
Experimental: The HaCaT cell line was cultured in a plastic cell culture vessel until a closed single-layered cell layer (HaCaT monolayer) was formed. Subsequently, the monolayer was pretreated with 50 mM or 100 mM ectoine in cell culture medium for 6 hours (h). After pretreatment, temperature treatment of the cells was made at 44° C. for 30 min. After heat stress, the monolayer was again incubated in the incubator at 37° C. for 24 hours. Subsequently, the HaCaT monolayer was harvested and, after lysis by means of cryoshock (freezing, unfreezing and scraping with spatula), the lysate was analysed for Claudin-1 by means of ELISA.

[8] = test system: human nasal mucosa epithelial cells (RPMI-2650); assay: Allergy prevention assay (APA), OVA penetration, RPMI-2650 monolayer; type: cell-based
Excerpt: as §3, §4, §5

[9] = test system: human keratinocytes (HaCaT); assay: TEER of HaCaT monolayer after overnight incubation and air drying (FIG. 5); type: cell-based; conditions: preincubation with ectoine (50/100 mM), air drying 5 min at RT, rehydration, 24 h with OVA
Experimental: as §1, with “10:5.). […]” for “10:5.).”
as §2
In a further experiment, an intact epithelial monolayer of human keratinocytes (HaCaT) was also incubated in cell culture medium with PBS (control), with 50 mM ectoine and with 100 mM ectoine over night. […] After air drying at RT under sterile conditions, the cells were overlaid with medium including OVA allergen (250 μg/ml) and incubated at 37° C. in the incubator for 24 hours and subsequently the TEER value was measured.

Compound	TEER value ([1]; TR146, 0.1% lecithin (positive control))	TEER ([2]; TR146, 0.1% lecithin over night)	TEER value ([1]; TR146, 50 mM ectoine)	Effect on TEER / membrane stability [3]	Penetrations protection (as compared to PBS) [%] +/− SD (HaCaT (drying stress); OVA + 50 mM ectoine)	Penetrations protection (as compared to PBS) [%] +/− SD (HaCaT (drying stress); OVA + 100 mM ectoine)	TEER ([2]; TR146, 50 mM ectoine over night)	Penetrations protection (as compared to PBS) [%] +/− SD ([4]; OVA + 10 mM ectoine)	Penetrations protection (as compared to PBS) [%] +/− SD ([4]; OVA + 50 mM ectoine)	Penetrations protection (as compared to PBS) [%] +/− SD ([4]; OVA + 100 mM ectoine)	Penetrations protection (as compared to PBS) [%] +/− SD [5]	Penetrations protection (as compared to PBS) [%] +/− SD [6]	Penetrations protection (as compared to PBS) [%] +/− SD ([7]; OVA + 50 mM ectoine)	Penetrations protection (as compared to PBS) [%] +/− SD ([7]; OVA + 100 mM ectoine)	Claudin-1 expression, factor over medium and PBS without ectoine (Claudin-1; 100 mM ectoine, 24 hours)	Claudin-1 expression [Claudin-1] +/− SD (Claudin-1; Ectoine 100 mM 6 h, 44° C. 30 min, 24 h at 37° C.)	Penetrations protection (as compared to PBS) [%] +/− SD ([8]; OVA + 10 mM ectoine)	Penetrations protection (as compared to PBS) [%] +/− SD ([8]; OVA + 100 mM ectoine)	TEER [9]
lecithin [reference compound]	225 Ohm	225 Ohm																	
CC1=NC(C(=O)O)CCN1 (stereo not shown) [ectoine, 1,4,5,6-tetrahydro-2-methyl-4-pyrimidine carboxylic acid]			215 Ohm	stabilization of the membrane of epithelial cells LLC-PK1 is already achieved	12% and 8.1 +/− 8.01%	11.6 +/− 6.25%	215 Ohm	0 +/− 11.52%	16.3 +/− 2.31%	up to 50%	13.44 +/− 7.69%	−0.61 +/− 0.1%	−6.3 +/−7.91^ %	−124.5 +/− 3.72%	3	0.22 ng/ml +/− 0.006	23.5 +/− 17.1%	up to 50%	approx. 180 Ohm
